Consider 4 compounds from US6413986B1, “[1-indanon-2-yl]methylpiperidines” (Aventis Pharmaceuticals Inc., priority 1991, dated 2002).

pIC50: −log10 of the molar value.

The experiment has as its target T1, Acetylcholinesterase (Rattus norvegicus, UniProt P37136).
T1 construct: Male Wistar rats are decapitated, brains rapidly removed, corpora striata dissected free, weighed and homogenized; from tissue; host or cells: rat brain corpora striata homogenate (male Wistar rats)
T1 sequence (P37136 32-614): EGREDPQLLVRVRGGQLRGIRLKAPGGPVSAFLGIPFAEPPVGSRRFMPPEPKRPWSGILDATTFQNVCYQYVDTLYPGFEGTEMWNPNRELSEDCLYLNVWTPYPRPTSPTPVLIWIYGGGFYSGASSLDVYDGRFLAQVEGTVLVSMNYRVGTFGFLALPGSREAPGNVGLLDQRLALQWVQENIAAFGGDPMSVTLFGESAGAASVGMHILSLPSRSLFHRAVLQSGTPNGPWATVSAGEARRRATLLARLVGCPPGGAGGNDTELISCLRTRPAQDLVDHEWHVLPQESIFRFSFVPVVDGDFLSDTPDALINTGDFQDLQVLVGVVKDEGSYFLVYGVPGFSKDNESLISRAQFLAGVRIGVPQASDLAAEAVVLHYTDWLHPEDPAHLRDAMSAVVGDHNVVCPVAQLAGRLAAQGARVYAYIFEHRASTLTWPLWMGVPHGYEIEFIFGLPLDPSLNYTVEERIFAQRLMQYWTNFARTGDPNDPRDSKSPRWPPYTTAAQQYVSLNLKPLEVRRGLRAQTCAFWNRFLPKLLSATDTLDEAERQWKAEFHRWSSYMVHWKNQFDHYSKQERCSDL
Briefly: inhibition of acetyl cholinesterase activity (acetylthiocholine/DTNB spectrophotometric assay, rat striatal homogenate). Type of experiment: biochemical, Male Wistar rats. The conditions noted are these: rat corpora striata homogenate; preincubated for 10 minutes at 37° C.; substrate acetylthiocholine 5 mM final; DTNB 0.5 mM; 412 nm; log-probit analysis. The method, then:
The [1-indanon-2-yl]methylpiperidines of the present invention are useful as agents for the relief of memory dysfunction, particularly dysfunctions associated with decreased cholinergic activity such as those found in Alzheimer's disease.
4. A 2 mM stock solution of the test drug is made up in a suitable solvent and q.sed to volume with 0.5 mM DTNB (reagent 3). Drugs are serially diluted (1:10) such that the final concentration (in cuvette) is 10^−4M and screened for activity. If active, IC50 values are determined from the inhibitory activity of subsequent concentrations.
Male Wistar rats are decapitated, brains rapidly removed, corpora striata dissected free, weighed and homogenized in 19 volumes (approximately 7 mg protein/ml) of 0.05 M sodium phosphate, pH 7.2 using a Potter-Elvehjem homogenizer. A 25 μl aliquot of this suspension is added to 1 ml of the vehicle or various concentrations of the test drug and preincubated for 10 minutes at 37° C.
Enzyme activity is measured with the Beckman DU-50 spectrophotometer. This method can be used for IC50 determinations and for measuring kinetic constants.
Reagents are added to the blank and sample cuvettes as follows:
Blank values are determined for each run to control for non-enzymatic hydrolysis of substrate and these values are automatically subtracted by the kindata program available on kinetics soft-pac module. This program also calculates the rate of absorbance change for each cuvette.
Substrate concentration is 10 mM diluted 1:2 in assay yielding final concentration of 5 mM. DTNB concentration is 0.5 mM final concentration
% Inhibition=slope control-slope drug/slope control×100
IC50 values are calculated from log-probit analysis.
Regarding `O=C(NCc1ccccc1)Oc1ccc2c(c1)C(=O)C(CC1CCN(Cc3cccc(F)c3)CC1)C2` (stereo not shown) [1-(3-Fluorobenzyl)-4-[[6-(benzylaminocarbonyloxy)-1-indanon]-2-yl]-methylpiperidine], the pIC50 (as a rule, −log10 of the IC50, conventionally taken in molar units) is 5.50.

As for `CNC(=O)Oc1ccc2c(c1)C(=O)C(CC1CCN(Cc3cccc(F)c3)CC1)C2` (stereo not shown) [1-(3-Fluorobenzyl)-4-[[6-(methylaminocarbonyloxy)-1-indanon]-2-yl]methylpiperidine], the negative-log IC50 (pIC50) is 5.82.

`CCCCNC(=O)Oc1ccc2c(c1)C(=O)C(CC1CCN(Cc3ccccc3)CC1)C2` (stereo not shown) [1-Benzyl-4-[[6-(butylaminocarbonyloxy)-1-indanon]-2-yl]methylpiperidine] gave a negative-log IC50 (pIC50) of 5.84. This pIC50 and that of the compound before are within 0.2 log units of each other.

On to `CNC(=O)Oc1ccc2c(c1)C(=O)C(CC1CCN(Cc3ccccc3)CC1)C2` (stereo not shown) [1-Benzyl-4-[[6-methylaminocarbonyloxy)-1-indanon]-2-yl]methylpiperidine], for which the negative-log IC50 (pIC50) is 5.87. This pIC50 and that of the compound before are within 0.2 log units of each other.
